Measurements taken from the supplement of paper PMC10307832.

What was measured:
Assay in all cases: relative viability (nuclei count vs DMSO), 5 days (fraction); higher = more cells survive
Bleomycin + Dasatinib = compound: CC1=C(N=C(N=C1N)[C@H](CC(=O)N)NC[C@@H](C(=O)N)N)C(=O)N[C@@H]([C@H](C2=CN=CN2)OC3C(C(C(C(O3)CO)O)O)OC4C(C(C(C(O4)CO)O)OC(=O)N)O)C(=O)N[C@H](C)[C@H]([C@H](C)C(=O)N[C@@H]([C@@H](C)O)C(=O)NCCC5=NC(=CS5)C6=NC(=CS6)C(=O)NCCC[S+](C)C)O [Bleomycin] + Cc1nc(Nc2ncc(C(=O)Nc3c(C)cccc3Cl)s2)cc(N2CCN(CCO)CC2)n1 [Dasatinib] (partner 0.075 µM); conditions: main component drawn
How it was run: (§1)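 Lung cancer cell lines were seeded in 1536-well plates and dosed by pin tool the next day, with either a single drug or a fixed anchor-drug dose combined with five library-drug doses (not always all listed) spaced in √10 steps. Five days later, one step fixed the cells and stained their nuclei (final 0.05% Triton X-100, 1% formaldehyde, 1 ug/ml Hoechst), and nuclei were counted on 4× images. Relative viability is the nuclei count in treated wells divided by the count in vehicle wells, and each value is the median of duplicate plates.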

Bleomycin + Olaparib = compound: CC1=C(N=C(N=C1N)[C@H](CC(=O)N)NC[C@@H](C(=O)N)N)C(=O)N[C@@H]([C@H](C2=CN=CN2)OC3C(C(C(C(O3)CO)O)O)OC4C(C(C(C(O4)CO)O)OC(=O)N)O)C(=O)N[C@H](C)[C@H]([C@H](C)C(=O)N[C@@H]([C@@H](C)O)C(=O)NCCC5=NC(=CS5)C6=NC(=CS6)C(=O)NCCC[S+](C)C)O [Bleomycin] + O=C(c1cc(Cc2n[nH]c(=O)c3ccccc23)ccc1F)N1CCN(C(=O)C2CC2)CC1 [Olaparib] (partner 8 µM); conditions: main component drawn
How it was run: as §1

Etoposide + Pictilisib = compound: COc1cc([C@@H]2c3cc4c(cc3[C@@H](O[C@@H]3O[C@@H]5CO[C@@H](C)O[C@H]5[C@H](O)[C@H]3O)[C@H]3COC(=O)[C@H]23)OCO4)cc(OC)c1O [Etoposide] + CS(=O)(=O)N1CCN(Cc2cc3nc(-c4cccc5[nH]ncc45)nc(N4CCOCC4)c3s2)CC1 [Pictilisib] (partner 1 µM)
How it was run: as §1

Etoposide + Olaparib = compound: COc1cc([C@@H]2c3cc4c(cc3[C@@H](O[C@@H]3O[C@@H]5CO[C@@H](C)O[C@H]5[C@H](O)[C@H]3O)[C@H]3COC(=O)[C@H]23)OCO4)cc(OC)c1O [Etoposide] + O=C(c1cc(Cc2n[nH]c(=O)c3ccccc23)ccc1F)N1CCN(C(=O)C2CC2)CC1 [Olaparib] (partner 8 µM)
How it was run: as §1

UMC-11 was tested, and the relative viability (Bleomycin + Dasatinib; first compound 0.01 µM) was 0.448, the relative viability (Bleomycin + Dasatinib; first compound 0.03162 µM) was 0.511 and the relative viability (Bleomycin + Dasatinib; first compound 0.1 µM) was 0.495. The relative viability (Bleomycin + Dasatinib; first compound 0.3162 µM) was 0.385, the relative viability (Bleomycin + Dasatinib; first compound 1 µM) was 0.328 and the relative viability (Bleomycin + Olaparib; first compound 0.01 µM) was 0.36. It also gave a relative viability (Bleomycin + Olaparib; first compound 0.03162 µM) of 0.342, a relative viability (Bleomycin + Olaparib; first compound 0.1 µM) of 0.371 and a relative viability (Bleomycin + Olaparib; first compound 0.3162 µM) of 0.393. For the same cell line, the relative viability (Bleomycin + Olaparib; first compound 1 µM) was 0.271, the relative viability (Etoposide + Pictilisib; first compound 0.01 µM) was 0.837 and the relative viability (Etoposide + Pictilisib; first compound 0.03162 µM) was 0.938. For the same cell line, the relative viability (Etoposide + Pictilisib; first compound 0.3162 µM) was 0.339, the relative viability (Etoposide + Pictilisib; first compound 1 µM) was 0.194 and the relative viability (Etoposide + Olaparib; first compound 0.01 µM) was 0.326. It also gave a relative viability (Etoposide + Olaparib; first compound 0.03162 µM) of 0.331, a relative viability (Etoposide + Olaparib; first compound 0.1 µM) of 0.311 and a relative viability (Etoposide + Olaparib; first compound 0.3162 µM) of 0.27. For the same cell line, the relative viability (Etoposide + Olaparib; first compound 1 µM) was 0.28.
